Target: T1, cathepsin K (Homo sapiens, UniProt P43235)
T1 construct: gene CTSK; recombinant human CatK
T1 sequence (P43235 115-329): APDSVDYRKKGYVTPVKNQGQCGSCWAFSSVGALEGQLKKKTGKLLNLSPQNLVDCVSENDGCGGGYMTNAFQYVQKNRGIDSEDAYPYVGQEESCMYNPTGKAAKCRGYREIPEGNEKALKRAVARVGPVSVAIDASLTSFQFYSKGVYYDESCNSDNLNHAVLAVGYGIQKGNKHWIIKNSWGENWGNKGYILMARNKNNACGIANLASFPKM
Assay: gelatin zymography with recombinant human CatK
Type: biochemical

Row | Compound | IC50 [nM]
1 | CC(C)C[C@H](NC(=O)c1ccc(-c2ccc(-c3ccccc3)cc2)cc1)C(=O)N(C)N(C)C#N [CKI-8] | 51 ± 20
2 | CC(C)C[C@H](NC(=O)c1cccc(-c2ccc(-c3ccccc3)cc2)c1)C(=O)N(C)N(C)C#N [CKI-13] | 29 ± 11

Source: article PMC4500499, “Azanitrile Cathepsin K Inhibitors: Effects on Cell Toxicity, Osteoblast-Induced Mineralization and Osteoclast-Mediated Bone Resorption” (PLoS ONE, 2015)
